Measured values as given in ChEMBL document CHEMBL1671625, “Comparative in vitro anti-hepatitis C virus activities of a selected series of polymerase, protease, and helicase inhibitors” (Antimicrob Agents Chemother, 2008).

Tests used:
[1] = system: Hepatitis C virus; assay: Antiviral activity against Hepatitis C virus genotype 1b infected in human Huh5-2 cells assessed as reduction in replicon RNA after 4 days by luciferase assay; format: functional, organism-based, Hepacivirus hominis; settings: Huh-5-2, 96 h
[2] = Cytotoxicity against human Huh5-2 cells after 3 days by MTT assay; format: cell-based, Huh-5-2
[3] = Cytotoxicity against human Huh-Mono cells after 3 days by MTT assay; format: cell-based
[4] = Cytotoxicity against human HuH6 cells after 3 days by MTT assay; format: cell-based
[5] = system: Hepatitis C virus; assay: Antiviral activity against Hepatitis C virus genotype 1b infected in human Huh-9-13 cells assessed as reduction in replicon RNA after 4days by RT-qPCR analysis; format: functional, organism-based, Hepacivirus hominis; settings: 96 h
[6] = system: Hepatitis C virus; assay: Antiviral activity against Hepatitis C virus genotype 1b infected in human Huh-Mono cells assessed as reduction in replicon RNA after 4 days by RT-qPCR analysis; format: functional, organism-based, Hepacivirus hominis; settings: 96 h
[7] = Cytotoxicity against human Huh-9-13 cells after 3 days by MTT assay; format: cell-based
[8] = system: Hepatitis C virus; assay: Antiviral activity against Hepatitis C virus genotype 1b infected in human HuH6 cells assessed as reduction in replicon RNA after 4days by RT-qPCR analysis; format: functional, organism-based, Hepacivirus hominis; settings: HuH-6, 96 h

| SMILES | EC50 [1] [nM] | CC50 at 72 h [2] [nM] | CC50 at 72 h [3] [nM] | CC50 at 72 h [4] [nM] | EC50 [5] [nM] | EC50 [6] [nM] | CC50 at 72 h [7] [nM] | EC50 [8] [nM] |
| --- | --- | --- | --- | --- | --- | --- | --- | --- |
| C[C@@]1(F)[C@H](O)[C@@H](CO)O[C@@H]1n1ccc(N)nc1=O | 2100 | > 33000 | > 33000 | > 33000 | 1700 | 5000 | > 33000 | 1100 |
| O=C(O)CNc1ccc(-c2ccc(Cl)cc2)c(COc2ccc(-c3nc4cc(C(=O)O)ccc4n3C3CCCCC3)cc2)c1 | 1100 | 21500 | 24000 | 21000 | 1500 | 800 | 24000 | 1200 |
| CC(C)CCn1c(=O)c(C2=NS(=O)(=O)c3ccccc3N2)c(O)c2ccccc21 | 1800 | > 33000 | > 33000 | > 33000 | 600 | 1800 | > 33000 | 11300 |
| CCC[C@H](NC(=O)[C@@H]1[C@H]2CCC[C@H]2CN1C(=O)[C@@H](NC(=O)[C@@H](NC(=O)c1cnccn1)C1CCCCC1)C(C)(C)C)C(=O)C(=O)NC1CC1 | 1000 | > 33000 | > 33000 | 25000 | 600 | 1000 | 24000 | 1000 |
| COc1ccc2c(O[C@@H]3C[C@H]4C(=O)N[C@]5(C(=O)O)C[C@H]5/C=C\CCCCC[C@H](NC(=O)OC5CCCC5)C(=O)N4C3)cc(-c3csc(NC(C)C)n3)nc2c1 | 40 | > 3000 | > 3000 | > 3000 | 15 | 10 | > 3000 | 4 |
| C[C@@]1(O)[C@H](O)[C@@H](CO)O[C@H]1n1ccc(N)nc1=O | 2000 | > 33000 | > 33000 | > 33000 | 400 | 700 | 25000 | 700 |
| OC[C@H]1O[C@@H](n2nnc3cc(Cl)c(Cl)cc32)[C@H](O)[C@@H]1O | 10000 | > 100000 | > 100000 | > 100000 | 34000 | 53000 | > 100000 | 12000 |
| C[C@@]1(O)[C@H](O)[C@@H](CO)O[C@H]1n1cnc2c(N)ncnc21 | 120 | > 33000 | > 33000 | > 33000 | 400 | 1700 | 21000 | 290 |
| [N-]=[N+]=N[C@]1(CO)O[C@@H](n2ccc(N)nc2=O)[C@H](O)[C@@H]1O [4'-AZIDOCYTIDINE] | 1400 | > 33000 | > 33000 | > 33000 | 1600 | 2200 | > 33000 | 6000 |
| C/C=C/C[C@@H](C)[C@@H](O)[C@H]1C(=O)N[C@@H](CC)C(=O)N(C)[C@H](C)C(=O)N(CC)[C@@H](C(C)C)C(=O)N[C@@H](C(C)C)C(=O)N(C)[C@@H](CC(C)C)C(=O)N[C@@H](C)C(=O)N[C@H](C)C(=O)N(C)[C@@H](CC(C)C)C(=O)N(C)[C@@H](CC(C)C)C(=O)N(C)[C@@H](C(C)C)C(=O)N1C [ALISPORIVIR] | 60 | > 3000 | > 3000 | > 3000 |  | 40 | > 3000 | 50 |
| CC(C)(C)NC(=O)N[C@H](C(=O)N1C[C@H]2[C@@H]([C@H]1C(=O)NC(CC1CCC1)C(=O)C(N)=O)C2(C)C)C(C)(C)C (some centres undefined) [BOCEPREVIR] |  | > 33000 | > 33000 | > 33000 | 130 | 2000 | > 33000 |  |
| C/C=C/C[C@@H](C)[C@@H](O)[C@H]1C(=O)N[C@@H](CC)C(=O)N(C)CC(=O)N(C)[C@@H](CC(C)C)C(=O)N[C@@H](C(C)C)C(=O)N(C)[C@@H](CC(C)C)C(=O)N[C@@H](C)C(=O)N[C@H](C)C(=O)N(C)[C@@H](CC(C)C)C(=O)N(C)[C@@H](CC(C)C)C(=O)N(C)[C@@H](C(C)C)C(=O)N1C [CYCLOSPORINE] | 300 |  |  |  | 500 | 300 |  | 240 |
| CNC(=O)c1c(-c2ccc(F)cc2)oc2cc(N(CCO)S(C)(=O)=O)c(C3CC3)cc12 [NESBUVIR] | 19 | > 33000 | > 33000 | > 33000 | 30 | 4 | > 33000 | 20 |
| Brc1c(Br)c(Br)c2[nH]nnc2c1Br [TETRABROMOBENZOTRIAZOLE] | 40000 | > 100000 | > 100000 | > 100000 | 65000 | 61000 | > 100000 | 43000 |
| O=C(O)c1cccs1 [THIOPHENE CARBOXYLIC ACID] |  | > 33000 | > 33000 | > 33000 |  |  | > 33000 |  |
